Holding throughout (format): cell-based, human
For assay [1], the system named is PC3 cells. As to the kind of experiment: Ganciclovir killing of PC3 cells after genome editing that integrates HSV-1 TK at the TMEM135-CCDC67 breakpoint. The note with it: PC3 cells without TMEM135-CCDC67 breakpoint, same treatment. An excerpt:
(§1) FIG. 28A-B. Genetic therapy targeting at TMEM135-CCDC67 genome breakpoint.
(§2) The technique described above was applied to cells having the TMEM135-CCDC67 breakpoint. Since none of the fusion genes we identified so far was present in prostate cancer cell lines, we created a TMEM135-CCDC67 genome breakpoint that is identical to the prostate cancer sample we analyzed. The expression of the TMEM135-CCDC67 breakpoint was driven by a CMV promoter. Subsequently, we constructed a donor DNA that encompassed HSV-1 TK and the splicing sites of TMEM135 exon 14. When we co-transfected this donor DNA with a vector that expresses gRNA targeting at the TMEM135-CCDC67 breakpoint into PC3 cells containing this genome breakpoint, integration of TK into the genome was identified (FIG. 28A). […] This is remarkable in considering only 5-10% transfection efficiency using conventional liposome method. […] In light of this promising result, both TMEM135-CCDC67-TK cassette and NicKase-gRNATMEM135-CCDC67-BrkPt DNA are now in the process of packaging into Adenovirus. We will infect the recombinant virus into these cells in the future experiments. This will dramatically improve the delivery efficiency in the subsequent animal study and probably human.

The subject of assay [2] is PC3 cells containing TMEM135-CCDC67 breakpoint. Described as above.
From the text: as §1, §2

Assay [3] deals with MAN2A1-FER transformed PC3 cells. Put plainly: Cell death of PC3 cells transformed with pCDNA4-MAN2A1-FER-FLAG/pCDNA6. How it is done: FIG. 23. […] Prostate cancer cell line PC3 was transformed with pCDNA4-MAN2A1-FER-FLAG/pCDNA6. Expression of MAN2A1-FER was induced with 5 μg/mL tetracycline. Cells not treated with tetracycline nor any drug were used as background controls.
The second approach is to target EGFR activation by EGFR inhibitors. These include erlotinib, cetuximab, […], canertinib and […]. Many of these drugs were FDA approved and is widely used in a variety of human solid tumors. To interrogate the effectiveness of EGFR activation interruption in treating prostate cancer, we treated MAN2A1-FER transformed PC3 cells with canertinib.

Where two headings read alike, the source gives them in different places.

`Nc1nc(O)c2ncn(COC(CO)CO)c2n1` [ganciclovir]: the cell death result in assay [1] is “minimal cell death”. Further, the “specific killing of TMEM135-CCDC67 breakpoint containing PC3 cells (FIG. 28B)” value in assay [2] is “specific killing”.
On to `C=CC(=O)Nc1cc2c(Nc3ccc(F)c(Cl)c3)ncnc2cc1OCCCN1CCOCC1` [Canertinib], for which the “cell death / killing of cells not expressing MAN2A1-FER” value in assay [3] (PC3 cells not expressing MAN2A1-FER (Tet-)) was “minimal”. In assay [3] (expression induced with 5 μg/mL tetracycline), the “specific killing of MAN2A1-FER expressing cells (FIG. 23)” value was “specifically kills”.
Turning to `C[C@@H](Oc1cc(-c2cnn(C3CCNCC3)c2)cnc1N)c1c(Cl)ccc(F)c1Cl` [Crisotinib], in assay [3], the cell death is on record as 31%, the “cell death / killing of cells not expressing MAN2A1-FER” value was “hardly killed”, the “lowering of cancer killing EC50 by expression of MAN2A1-FER” value is around 100 fold and the “specific killing of MAN2A1-FER expressing cells (FIG. 23)” value is reported as “specifically kills”.
On to `Cn1cnc2c(F)c(Nc3ccc(Br)cc3Cl)c(C(=O)NOCCO)cc21` [AZD6244], for which the “differential killing effect (MAN2A1-FER expressing versus not)” value in assay [3] (MEK interception, data not shown) is “largely moderated and vanished”.

The values above are taken from patent publication US10988812B2, “Fusion genes associated with progressive prostate cancer” (UNIVERSITY OF PITTSBURGH - OF THE COMMONWEALTH SYSTEM OF …, priority 2013, dated 2021).
